Reference: patent US9243247B2, “Composition for promoting apoptosis or inhibiting cell growth, comprising epstein-barr virus microrna” (Catholic University Industry Academic Cooperation Foundation, priority 2011, dated 2016)

Tests used:
Assay type in all cases: cell-based
[1] = test system: AGS cell strain; test: Cell growth test (CCK-8 assay) after transfection of BART miRNA mimics; conditions: for Relative Cell Growth: relative to scrambled control (=1)
Method in brief: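 EBV-negative AGS gastric cells in RPMI1640 with 10% FBS, seeded 1×10^3 cells/well and transfected with synthetic mature BART miRNA mimics (10 nM; dose series 1, 3, 10, 30 nM) via G-fectin. Growth read by CCK-8 after 72 h (or over time), 2 h at 37 °C, absorbance measured.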

[2] = test system: AGS cell strain; test: Measurement of apoptosis (Annexin V staining, FACS); conditions: for Relative Apoptotic cell: mimic 10 nM, 10 uM 5-FU 24 h after transfection, then 48 hours, Annexin V, relative to scrambled control (=1), n=9; for effect on cell growth and apoptosis (summary statement): mimics transfected to AGS, tumor cell strain not infected with EBV
Method in brief: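 EBV-negative AGS cells (2×10^5/well) were transfected with 10 nM synthetic miRNA. Twenty-four hours later they received 10 uM 5-FU for 48 h at 37 °C. The apoptotic cell ratio was measured by PE Annexin V staining and FACS.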

[3] = test system: AGS cell strain; test: Effect on cell cycle (propidium iodide staining, FACS, sub G1); conditions: for Relative Sub G1: mimic 10 nM, 10 uM 5-FU 24 h after transfection, then 48 hours, relative to scrambled control (=1)
Method in brief: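 AGS gastric cells (EBV-negative), 2×10^5 per well, were transfected with synthetic miRNA (10 nM). DNA was stained with propidium iodide, and the cell-cycle-altered fraction was measured by FACS.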

[4] = mimic 10 nM, 72 hours after transfection, n=9
[5] = AGS, mimic 10 nM in combination with 10 uM 5-FU

Row | Substance | Relative Cell Growth [1, 4] | Relative Apoptotic cell ([2]; AGS) | Relative Sub G1 [3] | effect on cell growth and apoptosis (summary statement) [2] | also measured
1 | BART10-3p: EBV BART miRNA mimic, double stranded RNA; sense SEQ NO: 59, antisense SEQ NO: 60 (sense UACAUAACCAUGGAGUUGGCUGU; antisense ACAGCCAACUCCAUGGUUAUGUA; chemistry not given here) | 1.591 | 0.8971 | 0.8394 |  | 
2 | BART12-3p: EBV BART miRNA mimic, double stranded RNA; sense SEQ NO: 67, antisense SEQ NO: 68 (sense UCCUGUGGUGUUUGGUGUGGUU; antisense AACCACACCAAACACCACAGGA; chemistry not given here) | 1.102 | 1.084 | 1.317 |  | Relative Sub G1 ([3]; listed as 12-3p): increased
3 | BART20-5p: EBV BART miRNA mimic, double stranded RNA; sense SEQ NO: 73, antisense SEQ NO: 74 (sense UAGCAGGCAUGUCUUCAUUCC; antisense GGAAUGAAGACAUGCCUGCUA; chemistry not given here) | 1.245 | 1.075 | 1.379 |  | Relative Sub G1 ([3]; listed as 20-5p): increased
4 | BART3-3p: EBV BART miRNA mimic, double stranded RNA; sense SEQ NO: 3, antisense SEQ NO: 4 (sense CGCACCACUAGUCACCAGGUGU; antisense ACACCUGGUGACUAGUGGUGCG; chemistry not given here) | 1.135 | 1.111 | 0.9648 |  | 
5 | BART7-5p: EBV BART miRNA mimic, double stranded RNA; sense SEQ NO: 41, antisense SEQ NO: 42 (sense CCUGGACCUUGACUAUGAAACA; antisense UGUUUCAUAGUCAAGGUCCAGG; chemistry not given here) | 1.539 | 1.097 | 0.9918 | inhibit cell growth and promote apoptosis | Relative Apoptotic cell ([2]; AGS, listed as 7-5p): significantly higher
6 | BART4-3p: EBV BART miRNA mimic, double stranded RNA; sense SEQ NO: 7, antisense SEQ NO: 8 (sense CACAUCACGUAGGCACCAGGUGU; antisense ACACCUGGUGCCUACGUGAUGUG; chemistry not given here) | 1.065 | 1.133 | 0.755 | inhibit cell growth and promote apoptosis | Relative Apoptotic cell ([2]; AGS, listed as 4-3p): significantly higher
7 | BART15-5p: EBV BART miRNA mimic, double stranded RNA; sense SEQ NO: 13, antisense SEQ NO: 14 (sense AGGGAAACAUGACCACCUGAAGUC; antisense GACUUCAGGUGGUCAUGUUUCCCU; chemistry not given here) | 0.9545 | 1.022 | 0.8195 |  | 
8 | BART5-5p: EBV BART miRNA mimic, double stranded RNA; sense SEQ NO: 17, antisense SEQ NO: 18 (sense CAAGGUGAAUAUAGCUGCCCAUCG; antisense CGAUGGGCAGCUAUAUUCACCUUG; chemistry not given here) | 0.5231 | 1.325 | 2.111 | inhibit cell growth and promote apoptosis | cell growth depending on mimic concentration (onset of inhibition) ([1]; 1, 3, 10 and 30 nM, 72 hours after transfection): a tendency to inhibit cell growth beginning at 10 nM; Relative Cell Growth ([1]; mimic 10 nM, 72 hours after transfection, n=9, listed as miR-BART5-5p): inhibited cell growth; cell growth over time ([1]; mimic 10 nM, depending on treatment time): greatly decreased cell growth; ratio of early apoptotic cell [2, 5]: increased; ratio of late apoptotic cell [2, 5]: increased; degree of apoptosis, combination with 5-FU versus sum of single treatments ([2]; AGS, mimic 10 nM plus 10 uM 5-FU): synergetic effect; ratio of early apoptotic cell ([2]; AGS, mimic 10 nM treated alone): increased; ratio of late apoptotic cell ([2]; AGS, mimic 10 nM treated alone): increased; Relative Apoptotic cell ([2]; AGS, listed as 5-5p): significantly higher; ratio of sub G1 after the 5-FU treatment ([3]; mimic 10 nM plus 10 uM 5-FU (Example 6)): greatly increased; Relative Sub G1 ([3]; listed as 5-5p): increased
